Laboratory results: ChEMBL document CHEMBL4387763, “Discovery of novel biaryl sulfonamide based Mcl-1 inhibitors” (Bioorg Med Chem Lett, 2019)
Values after ≈ are worked out from the molar mass of the structure shown.

What was measured:
[1] = target: T1, Induced myeloid leukemia cell differentiation protein Mcl-1 (Homo sapiens, UniProt Q07820); test: Inhibition of […]-labelled BID binding to human MCl-1 (171 to 327 residues) expressed in Escherichia coli BL21 (DE3) by fluorescence polarization assay
[2] = Stability in mouse liver microsomes assessed as parent compound remaining after 30 mins; assay type: ADME, Microsome; conditions: read-out: Stability
[3] = Solubility of the compound; assay type: physicochemical
[4] = Stability in human liver microsomes assessed as parent compound remaining after 30 mins; assay type: ADME, Microsome; conditions: read-out: Stability
[5] = target: T1, Induced myeloid leukemia cell differentiation protein Mcl-1; test: Binding affinity to biotin-labelled TEV-fused GST-tagged MCl-1 (unknown origin) by surface plasmon resonance analysis

T1 sequence (Q07820 whole entry, the tested form may be a part): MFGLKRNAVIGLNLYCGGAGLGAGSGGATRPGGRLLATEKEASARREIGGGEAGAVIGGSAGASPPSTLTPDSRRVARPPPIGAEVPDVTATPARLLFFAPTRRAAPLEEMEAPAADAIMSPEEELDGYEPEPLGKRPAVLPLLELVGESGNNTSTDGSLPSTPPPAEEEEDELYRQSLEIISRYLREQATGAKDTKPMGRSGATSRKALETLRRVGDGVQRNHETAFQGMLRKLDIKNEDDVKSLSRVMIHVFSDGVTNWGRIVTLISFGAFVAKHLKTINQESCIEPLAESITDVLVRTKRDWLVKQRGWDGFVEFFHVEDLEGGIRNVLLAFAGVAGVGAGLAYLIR

SMILES	IC50 [1] [µM]	also measured
O=S(=O)(Nc1ccc(Cl)cc1Cl)c1cc(Cl)ccc1Cl	21	
O=S(=O)(Nc1ccc2ccccc2c1)c1cc(Cl)ccc1Cl	> 25	
Cc1cc(C(=O)N[C@H](Cc2ccccc2)c2nnn[nH]2)sc1S(=O)(=O)Nc1cc(C(F)(F)F)ccc1Cl	0.153	
O=C(Nn1cnnc1)c1cccc(S(=O)(=O)Nc2cc(C(F)(F)F)ccc2Cl)c1	19	
Cc1cc(C(=O)N[C@H](Cc2ccc(-c3ccccc3)cc2)C(=O)O)sc1S(=O)(=O)Nc1cc(C(F)(F)F)ccc1Cl	2.8	
Cc1cc(C(=O)NCC(=O)O)sc1S(=O)(=O)Nc1cc(C(F)(F)F)ccc1Cl	0.47	
COC(=O)c1cc(C)c(S(=O)(=O)Nc2cc(C(F)(F)F)ccc2Cl)s1	1.9	
Cc1cc(C(=O)NC(Cc2ccccc2)Cc2ccccc2)sc1S(=O)(=O)Nc1cc(C(F)(F)F)ccc1Cl	7.1	
Cc1cc(C(=O)N(CCc2ccccc2)CC(=O)O)sc1S(=O)(=O)Nc1cc(C(F)(F)F)ccc1Cl	0.69	
Cc1cc(C(=O)NC2CCc3ccccc3C2)sc1S(=O)(=O)Nc1cc(C(F)(F)F)ccc1Cl (stereo unspecified)	4.2	
Cc1cc(C(=O)N[C@H](Cc2ccccc2)C(=O)O)sc1S(=O)(=O)Nc1cc(C(F)(F)F)ccc1Cl	0.181	remaining at 0.5 h [2]: 95%; solubility [3]: 100 µM (≈ 54.7 µg/mL); remaining at 0.5 h [4]: 66%
O=S(=O)(Nc1cc(C(F)(F)F)ccc1Cl)c1sc(Cl)cc1Cl	8.6	
Cc1ccc([N+](=O)[O-])cc1NS(=O)(=O)c1cc(Cl)ccc1Cl	20	
Cc1ccccc1S(=O)(=O)Nc1cc(C(F)(F)F)ccc1Cl	11	
Cc1cc(C(=O)NCCc2ccc(Oc3ccccc3)cc2)sc1S(=O)(=O)Nc1cc(C(F)(F)F)ccc1Cl	7	
Cc1cc(C(=O)NC2(C(=O)O)CC2)sc1S(=O)(=O)Nc1cc(C(F)(F)F)ccc1Cl	1.5	
Cc1cc(C(=O)N[C@H](Cc2ccccc2)C(N)=O)sc1S(=O)(=O)Nc1cc(C(F)(F)F)ccc1Cl	0.153	
Cc1cc(C(=O)N[C@H](Cc2ccccc2)C(=O)NS(C)(=O)=O)sc1S(=O)(=O)Nc1cc(C(F)(F)F)ccc1Cl	0.073	remaining at 0.5 h [2]: 91%; remaining at 0.5 h [4]: 99%
Cc1cc(C(=O)N[C@H](CCc2ccccc2)C(=O)O)sc1S(=O)(=O)Nc1cc(C(F)(F)F)ccc1Cl	0.82	
Cc1cc(C(=O)N[C@H](Cc2cccnc2)C(=O)O)sc1S(=O)(=O)Nc1cc(C(F)(F)F)ccc1Cl	0.38	
Cc1cc(C(=O)NCCc2ccccc2)sc1S(=O)(=O)Nc1cc(C(F)(F)F)ccc1Cl	0.81	
Cc1cc(C(=O)N[C@@H](C(=O)O)C(C)C)sc1S(=O)(=O)Nc1cc(C(F)(F)F)ccc1Cl	0.66	
Cc1cc(C(=O)N[C@H](Cc2ccccc2)C(=O)NS(=O)(=O)c2ccccc2)sc1S(=O)(=O)Nc1cc(C(F)(F)F)ccc1Cl	0.053	remaining at 0.5 h [2]: 81%; remaining at 0.5 h [4]: 74%
Cc1cc(C(=O)NCc2nnn[nH]2)sc1S(=O)(=O)Nc1cc(C(F)(F)F)ccc1Cl	0.42	
Cc1cc(C(=O)N[C@H](Cc2c[nH]c3ccccc23)C(=O)O)sc1S(=O)(=O)Nc1cc(C(F)(F)F)ccc1Cl	0.21	remaining at 0.5 h [2]: 94%; solubility [3]: 100 µM (≈ 58.6 µg/mL); remaining at 0.5 h [4]: 98%
Cc1cc(C(=O)N[C@H](Cc2c[nH]cn2)C(=O)O)sc1S(=O)(=O)Nc1cc(C(F)(F)F)ccc1Cl	0.92	
Cc1ccc(F)cc1S(=O)(=O)Nc1cc(C(F)(F)F)ccc1Cl	5.5	
Cc1cc(C(=O)N[C@H](Cc2ccccc2)C(=O)NCCO)sc1S(=O)(=O)Nc1cc(C(F)(F)F)ccc1Cl	0.112	

SMILES	IC50 [1] [µM]	also measured
O=S(=O)(Nc1ccn[nH]1)c1cc(Cl)ccc1Cl	> 25	
CN(C)c1ccc(S(=O)(=O)N(C)C)cc1NS(=O)(=O)c1cc(Cl)ccc1Cl	18	
Cc1cc(C(=O)NC[C@H](O)c2ccccc2)sc1S(=O)(=O)Nc1cc(C(F)(F)F)ccc1Cl	0.47	
Cc1cc2c(cc1S(=O)(=O)Nc1cc(C(F)(F)F)ccc1Cl)OCC(=O)N2	1.8	
Cc1cc(F)ccc1S(=O)(=O)Nc1cc(C(F)(F)F)ccc1Cl	10	
O=S(=O)(Nc1ccccc1Cl)c1cc(Cl)ccc1Cl	> 25	
CC(C)c1cccc(NS(=O)(=O)c2cc(Cl)ccc2Cl)c1	> 25	
Cc1cc(C(=O)NS(C)(=O)=O)sc1S(=O)(=O)Nc1cc(C(F)(F)F)ccc1Cl	1.07	
Cc1cc(C(=O)N2CCN(C(=O)OC(C)(C)C)C[C@H]2C(=O)O)sc1S(=O)(=O)Nc1cc(C(F)(F)F)ccc1Cl	0.63	
Cn1ccnc1S(=O)(=O)Nc1cc(C(F)(F)F)ccc1Cl	17	
O=S(=O)(Nc1cc(Cl)c(Cl)cc1Cl)c1cc(Cl)ccc1Cl	9	
O=S(=O)(Nc1cc(C(F)(F)F)ccc1Cl)c1c(Cl)cccc1Cl	7.3	
Cc1cc(C(=O)NC(Cc2ccccc2)C(=O)O)sc1S(=O)(=O)Nc1cc(C(F)(F)F)ccc1Cl (stereo unspecified)	0.3	
Cc1cc(C(=O)N[C@H](COCc2ccccc2)C(=O)O)sc1S(=O)(=O)Nc1cc(C(F)(F)F)ccc1Cl	0.31	
Cc1cc(C(=O)N2CCCC[C@H]2C(=O)O)sc1S(=O)(=O)Nc1cc(C(F)(F)F)ccc1Cl	1	
O=S(=O)(Nc1cccc(C(F)(F)F)c1)c1cc(Cl)ccc1Cl	> 25	
Cc1ccc(S(=O)(=O)Nc2cc(C(F)(F)F)ccc2Cl)c(C)c1	12	
COC(=O)[C@@H](Cc1ccccc1)NC(=O)c1cc(C)c(S(=O)(=O)Nc2cc(C(F)(F)F)ccc2Cl)s1	0.145	
Cc1cc(C(=O)NC(Cc2ccccc2)c2ccccc2)sc1S(=O)(=O)Nc1cc(C(F)(F)F)ccc1Cl (stereo unspecified)	7.1	
Cc1nn(C)c(Cl)c1S(=O)(=O)Nc1cc(C(F)(F)F)ccc1Cl	23	
O=S(=O)(Nc1cc(C(F)(F)F)ccc1Cl)c1ccccc1Cl	13	
Cc1cc(C(=O)N[C@@H](Cc2ccccc2)C(=O)O)sc1S(=O)(=O)Nc1cc(C(F)(F)F)ccc1Cl	0.75	
Cc1cc(C(=O)N[C@H](C)C(=O)O)sc1S(=O)(=O)Nc1cc(C(F)(F)F)ccc1Cl	1.5	
O=S(=O)(Nc1cc(Cl)ccc1Cl)c1cc(Cl)ccc1Cl	11	
O=S(=O)(Nc1cc(C(F)(F)F)ccc1Cl)c1cc(Cl)ccc1Cl	0.149 to 3.1	
Cc1cc(C(=O)NCCC(=O)O)sc1S(=O)(=O)Nc1cc(C(F)(F)F)ccc1Cl	3.5	
Cc1cc(C(=O)NC[C@@H](O)c2ccccc2)sc1S(=O)(=O)Nc1cc(C(F)(F)F)ccc1Cl	0.149	Kd [5]: 0.165 µM
